pEC50, pIC50: −log10 of the molar value. Entries after “also recorded” stand apart in the source; their conditions may differ. Where two headings read alike, the source gives them in different places. Non-standard residues stand in square brackets, D forms with d. Residues, ends and D or L forms follow the SMILES beside them. *: point of attachment. GlcA(β-D,1-O-dodecyl) = CCCCCCCCCCCCO[C@@H]1O[C@H](C(=O)*)[C@@H](O)[C@H](O)[C@H]1O; GlcA(β1-O-octyl) = CCCCCCCCO[C@@H]1O[C@H](C(=O)*)[C@@H](O)[C@H](O)[C@H]1O; Phe(2,4,6-Me3) = Cc1cc(C)c(C[C@H](N)C(=O)O)c(C)c1; Dmt = Cc1cc(O)cc(C)c1C[C@H](N)C(=O)O; hArg = N=C(N)NCCCC[C@H](N)C(=O)O; Nle = CCCC[C@H](N)C(=O)O; Ac5c = NC1(C(=O)O)CCCC1; Aib = CC(C)(N)C(=O)O
How the values were obtained:
PTH receptor (PTHR1) = molecular target: T1, PTH receptor (PTHR1) (Homo sapiens, UniProt Q03431); assay: PTH1 cellular assay, cAMP, agonist mode (SaOS2 cells, Cerep); assay type: cell-based
T1 construct: Cerep SA
T1 sequence (Q03431 27-593): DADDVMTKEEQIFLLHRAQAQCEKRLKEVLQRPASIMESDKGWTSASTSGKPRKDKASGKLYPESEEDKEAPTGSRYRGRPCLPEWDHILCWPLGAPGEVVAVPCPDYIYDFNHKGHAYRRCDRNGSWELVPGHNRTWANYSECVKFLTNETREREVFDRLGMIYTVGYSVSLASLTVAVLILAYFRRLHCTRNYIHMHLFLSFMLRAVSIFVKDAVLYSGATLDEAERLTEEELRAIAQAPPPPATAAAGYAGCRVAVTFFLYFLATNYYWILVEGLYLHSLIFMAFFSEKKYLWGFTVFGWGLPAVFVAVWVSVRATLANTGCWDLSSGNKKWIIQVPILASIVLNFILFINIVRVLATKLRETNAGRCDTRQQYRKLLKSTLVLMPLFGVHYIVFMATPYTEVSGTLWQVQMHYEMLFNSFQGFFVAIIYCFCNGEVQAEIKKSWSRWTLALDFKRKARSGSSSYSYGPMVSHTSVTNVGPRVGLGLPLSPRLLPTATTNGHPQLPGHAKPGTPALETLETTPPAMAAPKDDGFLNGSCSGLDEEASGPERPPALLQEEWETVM
Protocol: Compounds were weighed precisely in an amount of approximately 1 mg and assayed in standard cellular assays (cerep SA). The readout is the amount of cAMP generated in the cells treated with the test compounds, in either agonist or antagonist mode.
Compounds were dissolved in water and diluted in assay buffer containing 1% bovine serum albumin.

blood PO4 levels in rats = assay: blood phosphate levels in rats after single s.c. injection; assay type: in vivo, rat
Excerpt: Following the method of Frolik, C.

blood Ca levels in rats = details: sc, 320 micrograms per kg (G4), at 5 hrs
Protocol: Each animal in a group was treated with a single sc injection of either vehicle or test agent.
Blood samples were collected via retro-orbital vein at 0.5, 1, 2, 4, and 5 hrs. post-injection and blood samples were stored on ice prior to centrifugation and testing for blood PO4 and Ca levels.

mu opioid receptor [1] = molecular target: T2, mu opioid receptor (Homo sapiens, UniProt P35372); assay: mu opioid receptor cellular assay (MOP), agonist mode, cAMP readout (Cerep); assay type: cell-based
T2 construct: Cerep
Protocol: (§1) Compounds were weighed precisely in an amount of approximately 2 mg and assayed in standard cellular assays by the contract research organization Cerep, Inc. (Pullman, Wash.) as executed at their subsidiary, Cerep SA (Le Bois l'Eveque, France). The readout is the amount of cAMP generated in the cells treated with the test compounds, in either agonist or antagonist mode. The assays used were the mu opioid receptor cellular assay (MOP in agonist and antagonist mode), the delta2 opioid receptor cellular assay (DOP in agonist and antagonist mode) and the kappa opioid receptor cellular assay (KOP in agonist and antagonist mode). The assays used are described in Wang, J. B., et al. (1994) FEBS Lett 338: 217-222, Law, P. Y. and Loh, H. H. (1993) Mol Pharmacol 43: 684-693, and Avidor-Reiss, T., et al. (1995) FEBS Lett 361: 70-74. The stimulant for the cells in the DOR antagonist assay was 3×10E-8M DPDPE, a well-accepted DOR literature standard.

mu opioid receptor [2] = molecular target: T2, mu opioid receptor; assay: mu opioid receptor cellular assay (MOP), antagonist mode, cAMP readout (Cerep); assay type: cell-based
Protocol: as §1

db/db mice = assay: db/db mice, blood glucose after s.c. dosing; assay type: in vivo, mouse; details: db/db mice, s.c., 250 nmole/kg
Protocol: The 60 female db/db B6BKS (D) Leprdb/J (strain 000697) mice for this study were approximately 8 to 9 weeks old at arrival (Jackson Laboratory, Bar Harbor, Me.). […] One group of 8 female mice served as the vehicle control and received the vehicle, 0.2% BSA in saline, pH 7.4. One additional group of 8 female mice received the positive control article, liraglutide, at a dose level of 50 nmoles/kg. The test articles, vehicle, and positive control article were administered on Day 1, at approximately 0, 7, and 24 hours during the study via subcutaneous injection at a dose volume of 6 mL/kg.
Clinical observations were conducted at receipt, prior to randomization, and daily from Days 1 to 5. Body weights were measured and recorded at receipt, prior to randomization, and daily from Days 1 to 5. Food consumption was measured and recorded daily from Days 1 to 5. Blood samples for glucose analysis were collected pretest (Day −3) and at 0, 1, 2, 4, 8, 10, 24, 48, 72, and 96 hours following the first dose on Day 1. At study termination all animals were euthanized and the carcasses were discarded without further evaluation.

[3] = plasma protease stability, incubation in human plasma at 37 degC, LC-MS; assay type: in vitro ADME; details: over 8 hrs
[4] = in vivo; cited from earlier work

T2 sequence (P35372 whole entry): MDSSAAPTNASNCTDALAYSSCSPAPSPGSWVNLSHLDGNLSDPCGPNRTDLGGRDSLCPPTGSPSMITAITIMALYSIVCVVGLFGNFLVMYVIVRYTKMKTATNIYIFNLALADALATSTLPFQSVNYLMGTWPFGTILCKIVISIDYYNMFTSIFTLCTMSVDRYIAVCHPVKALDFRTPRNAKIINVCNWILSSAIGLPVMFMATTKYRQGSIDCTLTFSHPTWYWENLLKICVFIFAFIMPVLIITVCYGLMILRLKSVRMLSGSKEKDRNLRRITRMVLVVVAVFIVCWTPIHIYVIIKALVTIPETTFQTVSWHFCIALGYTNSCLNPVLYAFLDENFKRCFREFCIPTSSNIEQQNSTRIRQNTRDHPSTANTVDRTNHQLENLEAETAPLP

## CCCCCCCCCCCCO[C@@H]1O[C@H](C(=O)NCCCC[C@H](NC(=O)C(C)(C)NC(=O)[C@H](CCC(N)=O)NC(=O)[C@@H](NC(=O)[C@H](Cc2c[nH]c3ccccc23)NC(=O)[C@H](CCCNC(=N)N)NC(=O)[C@H](C)NC(=O)[C@H](CCCCNC(=N)N)NC(=O)[C@H](CCC(N)=O)NC(=O)[C@H](Cc2c[nH]cn2)NC(=O)[C@H](CCCC)NC(=O)[C@H](CC(C)C)NC(=O)[C@H](CCC(N)=O)NC(=O)[C@@H](NC(=O)[C@H](CCC(=O)O)NC(=O)C(C)(C)NC(=O)[C@@H](NC(=O)C2(N)CCCC2)C(C)C)[C@@H](C)CC)[C@@H](C)CC)C(=O)NC(C)(C)C(N)=O)[C@@H](O)[C@H](O)[C@H]1O [EU-232, Ac5c1-Val2-Aib3-Glu4-Ile5-Gln6-Leu7-Nle8-His9-Gln10-hArg11-Ala12-Arg13-Trp14-Ile15-Gln16-Aib17-Lys(N-epsilon-1′-dodecylbeta-D-glucuronyl)18-Aib19-NH2] (H-[Ac5c]V[Aib]EIQL[Nle]HQ[hArg]ARWIQ[Aib]K(GlcA(β-D,1-O-dodecyl))[Aib]-NH2)
PTH receptor (PTHR1)
  Characterization: super-agonistic response; also recorded: super-agonistic activity; also recorded: agonist
  pEC50: 8.62
PTH receptor (PTHR1); SAOS-2, read-out: Maximal response (% PTHrP)
  Emax: 145%
PTH receptor (PTHR1); SAOS-2, read-out: maximal response
  Emax: 125%
Blood PO4 levels in rats; sc, last time point in the assay
  time point of maximal statistically significant effect on blood phosphate: 5 h
Blood PO4 levels in rats; single sc injection, 80 mcg groups
  blood PO4 levels: transient but not statistically significant decrease
Blood PO4 levels in rats; single sc injection, 5 hr. time point, dose not named in the sentence (320 group)
  maximal decrease in blood PO4 levels from time 0 hr. level: 25-35%
Blood Ca levels in rats
  blood calcium levels: no elevation

## CCCCCCCCO[C@@H]1O[C@H](C(=O)NCCCC[C@H](NC(=O)[C@H](Cc2c(C)cc(C)cc2C)NC(=O)[C@@H]2CCCN2C(=O)[C@@H](N)Cc2c(C)cc(O)cc2C)C(N)=O)[C@@H](O)[C@H](O)[C@H]1O [EU-A102, 2′,6′-dimethyl-L-tyrosyl-prolyl-2′,4′,6′-trimethyl-L-phenylalanyl-Nε-(1′-octyl β-D-glucuronyl)-L-lysine amide] (H-[Dmt]P[Phe(2,4,6-Me3)]K(GlcA(β1-O-octyl))-NH2)
Mu opioid receptor [1]
  Characterization (MOP): partial agonist
  pEC50: 7.00
Mu opioid receptor [2]
  pIC50: 7.00

## CCCCCCCCCCCCO[C@@H]1O[C@H](C(=O)NCCCC[C@H](NC(=O)[C@H](Cc2c(C)cc(C)cc2C)NC(=O)[C@@H]2CCCN2C(=O)[C@@H](N)Cc2c(C)cc(O)cc2C)C(N)=O)[C@@H](O)[C@H](O)[C@H]1O [EU-A103, Dmt-Pro-Tmp-Lys(C12-glucuronyl)-NH2] (H-[Dmt]P[Phe(2,4,6-Me3)]K(GlcA(β-D,1-O-dodecyl))-NH2)
Mu opioid receptor [1]
  Characterization (MOP): pure antagonist
Mu opioid receptor [2]
  pIC50: 7.07

## CCCCCCCCCCCCO[C@@H]1O[C@H](C(=O)NCCCC[C@H](NC(=O)[C@@H](NC(=O)[C@H](Cc2ccccc2)NC(=O)[C@H](CCC(=O)O)NC(=O)[C@@H]2CCCCNC(=O)CC[C@H](NC(=O)[C@H](CC(=O)O)NC(=O)[C@H](CC(C)C)NC(=O)[C@H](Cc3ccc(O)cc3)NC(=O)[C@H](CCCCN)NC(=O)[C@H](CO)NC(=O)[C@H](Cc3ccc(O)cc3)NC(=O)[C@H](CC(=O)O)NC(=O)[C@H](CO)NC(=O)[C@@H](NC(=O)[C@H](Cc3ccccc3)NC(=O)[C@@H](NC(=O)CNC(=O)[C@H](CCC(N)=O)NC(=O)C(C)(C)NC(=O)[C@@H](N)Cc3c[nH]cn3)[C@@H](C)O)[C@@H](C)O)C(=O)N[C@@H](CCC(N)=O)C(=O)N[C@@H](C)C(=O)N[C@@H](C)C(=O)N2)[C@@H](C)CC)C(=O)N[C@@H](Cc2c[nH]c3ccccc23)C(=O)N[C@@H](CC(C)C)C(=O)N[C@@H](CC(C)C)C(=O)N[C@@H](CCC(N)=O)C(=O)N[C@H](C(N)=O)[C@@H](C)O)[C@@H](O)[C@H](O)[C@H]1O [EU-A993]
db/db mice; 0 hr
  Mean Blood Glucose: 503 mg/dL
db/db mice; 10 hr
  Mean Blood Glucose: 305 mg/dL
db/db mice; 24 hr
  Mean Blood Glucose: 324 mg/dL
db/db mice; 48 hr
  Mean Blood Glucose: 426 mg/dL
[3]
  amount of intact compound versus time in human plasma: essentially no change

## CC[C@H](C)[C@H](NC(=O)[C@H](Cc1ccccc1)NC(=O)[C@H](CCC(=O)O)NC(=O)[C@H](CCCCN)NC(=O)[C@H](C)NC(=O)[C@H](C)NC(=O)[C@H](CCC(N)=O)NC(=O)CNC(=O)[C@H](CCC(=O)O)NC(=O)[C@H](CC(C)C)NC(=O)[C@H](Cc1ccc(O)cc1)NC(=O)[C@H](CO)NC(=O)[C@H](CO)NC(=O)[C@@H](NC(=O)[C@H](CC(=O)O)NC(=O)[C@H](CO)NC(=O)[C@@H](NC(=O)[C@H](Cc1ccccc1)NC(=O)[C@@H](NC(=O)CNC(=O)[C@H](CCC(=O)O)NC(=O)[C@H](C)NC(=O)[C@@H](N)Cc1c[nH]cn1)[C@@H](C)O)[C@@H](C)O)C(C)C)C(=O)N[C@@H](C)C(=O)N[C@@H](Cc1c[nH]c2ccccc12)C(=O)N[C@@H](CC(C)C)C(=O)N[C@H](C(=O)N[C@@H](CCCCN)C(=O)NCC(=O)N[C@@H](CCCNC(=N)N)C(N)=O)C(C)C [GLP-1 (7-36), reference compound]
[3]
  amount of intact compound versus time in human plasma: rapid decrease

## CC[C@H](C)[C@H](NC(=O)[C@H](CCC(=O)O)NC(=O)[C@H](CO)NC(=O)[C@@H](NC(=O)[C@@H](N)CO)C(C)C)C(=O)N[C@@H](CCC(N)=O)C(=O)N[C@@H](CC(C)C)C(=O)N[C@@H](CCSC)C(=O)N[C@@H](Cc1cnc[nH]1)C(=O)N[C@@H](CC(N)=O)C(=O)N[C@@H](CC(C)C)C(=O)NCC(=O)N[C@@H](CCCCN)C(=O)N[C@@H](Cc1cnc[nH]1)C(=O)N[C@@H](CC(C)C)C(=O)N[C@@H](CC(N)=O)C(=O)N[C@@H](CO)C(=O)N[C@@H](CCSC)C(=O)N[C@@H](CCC(=O)O)C(=O)N[C@@H](CCCN=C(N)N)C(=O)N[C@H](C(=O)N[C@@H](CCC(=O)O)C(=O)N[C@@H](Cc1c[nH]c2ccccc12)C(=O)N[C@@H](CC(C)C)C(=O)N[C@@H](CCCN=C(N)N)C(=O)N[C@@H](CCCCN)C(=O)N[C@@H](CCCCN)C(=O)N[C@@H](CC(C)C)C(=O)N[C@@H](CCC(N)=O)C(=O)N[C@@H](CC(=O)O)C(=O)N[C@H](C(=O)N[C@@H](Cc1cnc[nH]1)C(=O)N[C@@H](CC(N)=O)C(=O)N[C@@H](Cc1ccccc1)C(=O)O)C(C)C)C(C)C [Teriparatide]
[4]
  half life: 19 min

Reference: patent US10005817B2, “Peptide pharmaceuticals” (EUMEDERIS PHARMACEUTICALS, INC., priority 2012, dated 2018)
